Assays:
Format in all cases: in vivo, human
[1] = Part I single-ascending-dose plasma pharmacokinetics (HPLC-MS/MS, noncompartmental); details: for AUCINF / AUClast / Cl / Cmax / Tmax / Vz / t1/2: Part I, mean ± SD
Procedure: (§1) Pyragrel administration regimens are as follows: In the single-escalating-dose study (Part I), a total of 52 subjects are enrolled to receive one of three treatments (pyragrel, ozagrel, or placebo, diluted in 500 Ml normal saline) as a 3-h i.v. infusion. Six dose levels of pyragrel (30, 60,120, 180, 240, 300 mg) were intravenously infused to healthy subjects. Of the 12 subjects each at the first three dose groups (30, 60, and 120 mg), 8 received pyragrel, 2 received ozagrel (80 mg), and 2 received placebo. Eight subjects were assigned as 4/2/2 for pyragrel, ozagrel, and placebo at the 180 mg level. Only four subjects were enrolled at the 240- and 300-mg group each; all received pyragrel. […] In the saline-volume-changed study (Part II), the safety and pharmacokinetics of pyragrel were assessed by decreasing the volume of dilution saline. Four subjects received a single 3 h infusion of pyragrel 240 mg diluted in 250 ml saline instead of the 500 ml used in Part I. Blood samples were collected at multiple time points before and after the initiation of the infusion in Part I and Part II; 15 blood samples were predetermined as follows: before drug administration (time 0), 0.5, 1, 2, 3 (4 samples collected during infusion), 3.25, 3.5, 4, 5, 7, 9, 11, 15, 24, and 48 h (10 samples collected post infusion) after the initiation of the infusion. In the multiple-dose study (Part III), 12 subjects received a single 3 h infusion of 180 mg pyragrel (diluted in 250 ml saline) on Day 1 and Day 6 and twice 3 h infusion of 180 mg pyragrel from Day 2 to 5; 14 blood samples were collected on Day 1 and Day 6 before drug administration (0 h), 0.5, 1, 2, 3, 3.25, 3.5, 4, 5, 7, 9, 11, 15, 24 h after the initiation of the infusion; moreover, 5 ml cubital vein blood was collected each time right before pyragrel infusion on Day 2 to Day 5. In the 3×3 crossover study (Part IV), 12 subjects were randomized to receive each of the three dosing groups (60, 120, or 240 mg) of pyragrel (diluted with 250 ml saline, 3 h infusion) per period, with a 7-day washout period between doses. Sixteen blood samples were collected as follows: before drug administration (0 h), 0.17, 0.35, 0.5, 1, 2, 3, 3.25, 3.5, 4, 5, 7, 9, 11, 15, and 24 h after the initiation of the infusion at each period. In the prolonged infusion study (Part V), four subjects received continuous 24 h infusion of pyragrel 360 mg (diluted in 600 ml saline); 19 blood samples were collected as follows: before drug administration (0 h), 0.25, 0.5, 1, 2, 4, 8, 12, 16, 20 (nine samples collected during administration), 24.25, 24.5, 25, 26, 28, 30, 32, 36, and 48 h after the initiation of the infusion (details shown in Figure 1 ). In all five cohorts, 5 ml of cubital vein blood was collected with a sodium heparin anticoagulant tube and centrifuged at 3000 r·min^-1. Each plasma sample was divided into two aliquots and stored at −20°C until further bioanalysis. […] Briefly, 10 µl of the extract drug from […] was injected onto a Zorbax EcLipse XDB C18 column (2.1 mm × 150 mm, 5 μm) (Agilent, USA) using isocratic elution with a mobile phase composed of methanol, water, and formic acid (65:35:0.1, v/v/v). Determination of the analytes was achieved by tandem-mass spectrometry with positive electrospray ionization.
(§2) Pharmacokinetic parameters were calculated using the noncompartmental model (NCA module), WinNonlin 6.1 (Pharsight Corporation, Mountain View, CA, USA). Statistical analysis was performed with SPSS 18. The actual dosing and sampling times were utilized in the analysis. Pharmacokinetic parameters were summarized by dose regimens using descriptive statistics, including n, mean, and the coefficient of variation (CV). For Tmax, only n, min, median, and max were reported.

[2] = Part III multiple-dose study, plasma pharmacokinetics; details: for AUCINF / AUClast / Cl / Cmax / Tmax / Vz / t1/2: metabolite in plasma
Procedure: as §1, §2

[3] = Part IV urinary excretion of pyragrel and four metabolites; details: n=12, Mean ± SD
Procedure: Urine samples were collected after the initiation of pyragrel infusion as follows in Part IV: 0–3 (3 h infusion period), 3–7, 7–11, 11–15, and 15–24 h after pyragrel administration during each period. […] Production of 11-dehydro-thrombxane B2 (11-D-HTXB2) in urine sample was detected by ELISA method.

[4] = metabolite in plasma after single 3 h i.v. infusion of pyragrel 30 mg, n=8
[5] = metabolite in plasma after single 3 h i.v. infusion of pyragrel 60 mg, n=8
[6] = metabolite in plasma after single 3 h i.v. infusion of pyragrel 120 mg, n=8
[7] = metabolite in plasma after single 3 h i.v. infusion of pyragrel 180 mg, n=4
[8] = metabolite in plasma after single 3 h i.v. infusion of pyragrel 240 mg, n=4
[9] = metabolite in plasma after single 3 h i.v. infusion of pyragrel 300 mg, n=4
[10] = Part III, multiple dose i.v. infusion of 180 mg pyragrel

Structure (SMILES): COc1cc(CCC(=O)O)ccc1OCc1nc(C)c(C)nc1C [BBS]
- Pharmacokinetic process over the dose range ([1]; 30–300 mg dose range): linear
- AUCINF [1, 4]: 1016.64 ± 206.08 ng·h/mL
- AUClast [1, 4]: 1006.02 ± 209.31 ng·h/mL
- Cl [1, 4]: 30.60 ± 6.23 L/h
- Cmax [1, 4]: 216.34 ± 48.23 ng/mL
- Tmax [1, 4]: 3.22 ± 0.36 h
- Vz [1, 4]: 252.46 ± 113.75 L
- t1/2 [1, 4]: 5.90 ± 2.84 h
- AUCINF [1, 5]: 1815.58 ± 430.74 ng·h/mL
- AUClast [1, 5]: 1802.57 ± 421.18 ng·h/mL
- Cl [1, 5]: 34.63 ± 7.86 L/h
- Cmax [1, 5]: 389.37 ± 90.87 ng/mL
- Tmax [1, 5]: 3.25 ± 0.13 h
- Vz [1, 5]: 377.35 ± 68.16 L
- t1/2 [1, 5]: 7.94 ± 2.48 h
- AUCINF [1, 6]: 3566.52 ± 1518.01 ng·h/mL
- AUClast [1, 6]: 3553.23 ± 1512.83 ng·h/mL
- Cl [1, 6]: 37.91 ± 12.00 L/h
- Cmax [1, 6]: 753.36 ± 287.7 ng/mL
- Tmax [1, 6]: 3.31 ± 0.18 h
- Vz [1, 6]: 369.08 ± 168.49 L
- t1/2 [1, 6]: 6.89 ± 2.29 h
- AUCINF [1, 7]: 6563.91 ± 1179.31 ng·h/mL
- AUClast [1, 7]: 6542.7 ± 1174.8 ng·h/mL
- Cl [1, 7]: 28.22 ± 5.92 L/h
- Cmax [1, 7]: 1490.69 ± 358.43 ng/mL
- Tmax [1, 7]: 3.31 ± 0.24 h
- Vz [1, 7]: 301.81 ± 76.25 L
- t1/2 [1, 7]: 7.41 ± 0.97 h
- AUCINF [1, 8]: 8910.06 ± 3388.83 ng·h/mL
- AUClast [1, 8]: 8843.82 ± 3366.35 ng·h/mL
- Cl [1, 8]: 29.59 ± 9.55 L/h
- Cmax [1, 8]: 1878.22 ± 681.05 ng/mL
- Tmax [1, 8]: 3.25 ± 0.20 h
- Vz [1, 8]: 374.58 ± 119.99 L
- t1/2 [1, 8]: 8.81 ± 0.46 h
- AUCINF [1, 9]: 10549.78 ± 3061.74 ng·h/mL
- AUClast [1, 9]: 10466.78 ± 3028.35 ng·h/mL
- Cl [1, 9]: 30.84 ± 11.23 L/h
- Cmax [1, 9]: 2139.28 ± 589.06 ng/mL
- Tmax [1, 9]: 3.19 ± 0.13 h
- Vz [1, 9]: 345.29 ± 120.76 L
- t1/2 [1, 9]: 7.85 ± 1.92 h
- AUCINF [2, 10]: 7027.46 ± 3017.92 ng·h/mL
- AUClast [2, 10]: 6797.36 ± 2919.19 ng·h/mL
- Cl [2, 10]: 35.50 ± 18.33 L/h
- Cmax [2, 10]: 1356.91 ± 564.13 ng/mL
- Tmax [2, 10]: 3.19 ± 0.11 h
- Vz [2, 10]: 152.37 ± 94.36 L
- t1/2 [2, 10]: 6.07 ± 2.11 h
- R ([2]; Part III, metabolite, multiple vs single dose of 180 mg pyragrel, footnote d not given): 1.27 ± 0.13
- AA ([2]; Part III, metabolite, multiple vs single dose of 180 mg pyragrel, footnote e not given): 1.13 ± 0.24
- AUCINF ([2]; single dose of 180 mg pyragrel): 6145.79 ± 2339.86 ng·h/mL
- AUClast ([2]; single dose of 180 mg pyragrel): 6022.22 ± 2291.72 ng·h/mL
- Cl ([2]; single dose of 180 mg pyragrel): 36.52 ± 23.08 L/h
- Cmax ([2]; single dose of 180 mg pyragrel): 1324.23 ± 447.99 ng/mL
- Tmax ([2]; single dose of 180 mg pyragrel): 3.25 ± 0.15 h
- Vz ([2]; single dose of 180 mg pyragrel): 285.61 ± 221.29 L
- t1/2 ([2]; single dose of 180 mg pyragrel): 5.31 ± 1.42 h
- Accumulation on repeated dose, in words ([2]; repeated dose of pyragrel 180 mg for 6 days (once- or twice-daily dosing)): no accumulation
- Cumulative urinary drug recovery (normalized to pyragrel) within 24 h ([3]; single dose of pyragrel 60 mg): 3.90 ± 2.11%
- Cumulative urinary drug recovery (normalized to pyragrel) within 24 h ([3]; single dose of pyragrel 120 mg): 1.93 ± 0.85%
- Cumulative urinary drug recovery (normalized to pyragrel) within 24 h ([3]; single dose of pyragrel 240 mg): 2.75 ± 0.97%
